From patent publication US10202350B2, “MCT4 inhibitors for treating disease” (Vettore, LLC, priority 2015, dated 2019)

Key:
Type in all cases: cell-based
[1] = target: T1, MCT4 (Homo sapiens (Human), UniProt O15427); assay: Lactate transport in MCT4-expressing MDA-MB-453 breast cancer cells (BCECF); conditions: MDA-MB-453 cells stably expressing MCT4; 50 mM L-lactate
Protocol: Assay 1: Lactate Transport in MCT4-Expressing MDA-MB-453 Breast Cancer Cells. […] The following is an exemplary procedure for assaying MCT4 activity of the compounds of Formula (I). Preparing BCECF-Loaded Cells: […] The cells are pelleted (300 g, 5 min), washed once with 1 mL Tyrode's Solution, pH 7.4, re-pelleted (300 g, 5 min), and resuspended in 1 mL Tyrode's Solution, pH 7.4. Lactate Transport Assay: […] Fluorescence measurements are performed on a PerkinElmer LS55 fluorescence spectrometer with dual excitation wavelengths achieved using a filter wheel (FL Winlab program: Fast Filter; […] Emission 535). After establishing baseline BCECF fluorescence (around 10-20 s), 50 μL of 1 M sodium L-lactate (Sigma-Aldrich) is added to the cuvette (final concentration: 50 mM) and rapidly mixed.

[2] = target: T1, MCT4; assay: MCT4-mediated lactate transport in NCI-H358 lung adenocarcinoma cells; conditions: native MCT4, 50 mM L-lactate
Protocol: Cells (˜7×10^6) are trypsinized (0.05% Trypsin-EDTA), pelleted (300 g, 5 min), and resuspended in 1 mL Tyrode's Solution, pH 7.4 (119 mM NaCl, 5 mM KCl, 25 mM HEPES, pH 7.4, 2 mM CaCl2, 2 mM MgCl2, 6 g/L glucose). 10 μL of a 30 mM DMSO stock of BCECF-AM ester (Life Technologies) is added and the cells are incubated at 37° C. for 5 min. The cells are pelleted (300 g, 5 min), washed once with 1 mL Tyrode's Solution, pH 7.4, re-pelleted (300 g, 5 min), and resuspended in 1 mL Tyrode's Solution, pH 7.4.
(§1) 2.5 μL BCECF-loaded cells, along with either 10 μL DMSO or 100×compound in DMSO, are added to 937.5 μL of Tyrode's Solution in a quartz 1.0 mL cuvette (PerkinElmer, B0631116). Fluorescence measurements are performed on a PerkinElmer LS55 fluorescence spectrometer with dual excitation wavelengths achieved using a filter wheel (FL Winlab program: Fast Filter; Excitation 490/440; Emission 535). After establishing baseline BCECF fluorescence (around 10-20 s), 50 μL of 1 M sodium L-lactate (Sigma-Aldrich) is added to the cuvette (final concentration: 50 mM) and rapidly mixed. The time-dependent decrease in BCECF fluorescence (490/440 ratio) may be fit to an exponential decay curve (Prism GraphPad) to determine the rate of lactate transport.
Assay 2: MCT4-Mediated Lactate Transport in NCI-H358 Lung Adenocarcinoma Cells.
NCI-H358 lung adenocarcinoma cells may be used to measure MCT4 activity in cells with high native levels of MCT4 and low levels of MCT1 and are known to those with skill in the art. Preparation of BCECF-loaded cells and lactate transport activity may be determined as described for Assay 1.

[3] = target: MCT1 (Homo sapiens (Human), UniProt P53985); assay: MCT1-mediated lactate transport in BT20 breast cancer cells; conditions: native MCT1, 10 mM L-lactate
Protocol: (§2) 10 μL of a 30 mM DMSO stock of BCECF-AM ester (Life Technologies) is added and the cells are incubated at 37° C. for 5 min. The cells are pelleted (300 g, 5 min), washed once with 1 mL Tyrode's Solution, pH 7.4, re-pelleted (300 g, 5 min), and resuspended in 1 mL Tyrode's Solution, pH 7.4.
as §1, with “Fluorescence measurements are performed on a PerkinElmer LS55 fluorescence spectrometer with dual excitation wavelengths achieved using a filter wheel (FL Winlab program: Fast Filter; Excitation 490/440; Emission 535).” left out
Assay 4: MCT1-Mediated Lactate Transport in BT20 Breast Cancer Cells.
Preparation of BCECF loaded cells are as described for Assay 1. Lactate transport assay is as described for Assay 1, except 10 mM L-lactate (rather than 50 mM) is added.

[4] = target: T1, MCT4; assay: MCT4-mediated lactate transport in MDA-MB-231 breast cancer cells; conditions: MDA-MB-231 cells, native MCT4; 50 mM L-lactate
Protocol: as §2
as §1, with “Fluorescence measurements are performed on a PerkinElmer LS55 fluorescence spectrometer with dual excitation wavelengths achieved using a filter wheel (FL Winlab program: Fast Filter; Excitation 490/440; Emission 535).” left out
Preparation of BCECF-loaded cells and lactate transport activity may be determined as described for Assay 1.

T1 sequence (O15427 whole entry, looked up): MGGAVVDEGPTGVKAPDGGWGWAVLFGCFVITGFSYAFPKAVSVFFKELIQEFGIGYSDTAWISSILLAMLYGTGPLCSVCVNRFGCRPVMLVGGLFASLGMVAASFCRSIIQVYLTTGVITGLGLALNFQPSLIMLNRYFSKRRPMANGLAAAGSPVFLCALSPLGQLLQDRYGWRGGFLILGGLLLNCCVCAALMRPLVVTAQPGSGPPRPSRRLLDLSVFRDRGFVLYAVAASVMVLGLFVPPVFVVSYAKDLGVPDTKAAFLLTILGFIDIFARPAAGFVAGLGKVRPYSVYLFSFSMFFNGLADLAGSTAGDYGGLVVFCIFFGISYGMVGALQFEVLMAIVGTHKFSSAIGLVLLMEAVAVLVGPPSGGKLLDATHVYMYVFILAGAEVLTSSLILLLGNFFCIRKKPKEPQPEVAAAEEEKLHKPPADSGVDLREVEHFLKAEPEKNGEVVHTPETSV
T1 sequence (P35613 whole entry partner, looked up): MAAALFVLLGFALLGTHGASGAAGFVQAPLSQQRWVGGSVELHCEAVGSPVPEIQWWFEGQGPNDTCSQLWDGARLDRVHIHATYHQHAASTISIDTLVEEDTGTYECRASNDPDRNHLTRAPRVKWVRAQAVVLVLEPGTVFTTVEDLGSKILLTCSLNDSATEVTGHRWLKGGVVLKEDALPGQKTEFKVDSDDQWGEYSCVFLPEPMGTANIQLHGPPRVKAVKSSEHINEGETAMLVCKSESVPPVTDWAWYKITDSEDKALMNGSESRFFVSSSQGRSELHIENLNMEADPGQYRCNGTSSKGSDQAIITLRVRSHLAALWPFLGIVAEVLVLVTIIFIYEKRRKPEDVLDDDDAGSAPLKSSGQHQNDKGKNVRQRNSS
Sequence of MCT1 (P53985 whole entry): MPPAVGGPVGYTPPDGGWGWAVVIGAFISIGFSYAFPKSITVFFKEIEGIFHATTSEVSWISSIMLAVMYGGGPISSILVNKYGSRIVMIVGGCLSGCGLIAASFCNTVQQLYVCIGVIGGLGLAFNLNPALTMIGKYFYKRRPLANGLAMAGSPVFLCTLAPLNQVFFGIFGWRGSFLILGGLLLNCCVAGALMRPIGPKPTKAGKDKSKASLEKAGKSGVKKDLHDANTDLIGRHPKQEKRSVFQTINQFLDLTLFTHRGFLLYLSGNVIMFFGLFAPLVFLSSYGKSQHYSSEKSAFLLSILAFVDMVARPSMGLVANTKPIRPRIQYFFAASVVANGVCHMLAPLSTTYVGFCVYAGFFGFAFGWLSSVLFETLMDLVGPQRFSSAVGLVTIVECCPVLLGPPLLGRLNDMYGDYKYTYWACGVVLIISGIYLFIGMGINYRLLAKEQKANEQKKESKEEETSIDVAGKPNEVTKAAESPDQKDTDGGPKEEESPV
Sequence of MCT1 (P35613 140-385 partner): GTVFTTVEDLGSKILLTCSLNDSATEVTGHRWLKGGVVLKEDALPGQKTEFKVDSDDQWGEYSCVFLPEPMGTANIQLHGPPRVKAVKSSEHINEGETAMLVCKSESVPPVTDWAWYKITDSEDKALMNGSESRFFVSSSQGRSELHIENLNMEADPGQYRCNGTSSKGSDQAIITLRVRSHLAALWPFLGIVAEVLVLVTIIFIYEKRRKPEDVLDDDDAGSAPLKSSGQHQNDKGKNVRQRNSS

SMILES | IC50 [1] [nM] | IC50 [2] [nM] | IC50 ([3]; Table 2) [nM] | IC50 [4] [nM] | IC50 ([3]; Table 3) [nM]
CC(C)(OCc1cc(-c2ccc(Cl)cc2)n(Cc2ccccc2Cl)n1)C(=O)O [Example 3, 2-[[5-(4-Chlorophenyl)-1-[(2-chlorophenyl)methyl]pyrazol-3-yl]methoxy]-2-methyl-propanoic acid] | 72 | 60 | 25000 |  | 
O=C(O)COCc1cc(-c2ccc(Cl)cc2)n(Cc2ccc(Cl)cc2Cl)n1 [Example 6, 2-[[5-(4-Chlorophenyl)-1-[(2,4-dichlorophenyl)methyl]pyrazol-3-yl]methoxy]acetic acid] | 2400 | 4600 | 6600 |  | 
Cc1cccc(-c2cc(COC(C)(C)C(=O)O)nn2Cc2ccccc2Cl)c1 [Example 11, 2-[[1-[(2-Chlorophenyl)methyl]-5-(m-tolyl)pyrazol-3-yl]methoxy]-2-methyl-propanoic acid] | 45 | 25 | 29000 |  | 
CC(C)(OCc1cc(-c2ccc(Cl)cc2)n(Cc2cccnc2)n1)C(=O)O [Example 23, 2-[[5-(4-Chlorophenyl)-1-(3-pyridylmethyl)pyrazol-3-yl]methoxy]-2-methyl-propanoic acid] | 1500 | 2100 |  |  | 
CC(C)(OCc1cc(C2CCCC2)n(Cc2ccccc2Cl)n1)C(=O)O [Example 16, 2-[[1-[(2-Chlorophenyl)methyl]-5-cyclopentyl-pyrazol-3-yl]methoxy]-2-methyl-propanoic acid] | 1000 | 640 | 73000 |  | 
CC(C)(OCc1cc(-c2ccccc2)n(Cc2cccc(Cl)c2)n1)C(=O)O [Example 1, 2-[[1-[(3-Chlorophenyl)methyl]-5-phenyl-pyrazol-3-yl]methoxy]-2-methyl-propanoic Acid] | 340 | 140 | 50000 |  | 
CC(C)(OCc1cc(-c2ccc(Cl)cc2)n(Cc2ccccc2F)n1)C(=O)O [Example 19, 2-[[5-(4-Chlorophenyl)-1-[(2-fluorophenyl)methyl]pyrazol-3-yl]methoxy]-2-methyl-propanoic acid] | 110 | 160 | 57000 |  | 
CC(C)(OCc1cc(-c2cccc(O)c2)n(Cc2ccccc2Cl)n1)C(=O)O [Example 79, 2-[[1-[(2-Chlorophenyl)methyl]-5-(3-hydroxyphenyl)pyrazol-3-yl]methoxy]-2-methyl-propanoic Acid] |  |  |  | 59 | 15000
CC(C)(OCc1cc(-c2cccc(S(C)(=O)=O)c2)n(Cc2ccccc2Cl)n1)C(=O)O [Example 70, 2-([1-[(2-chlorophenyl)methyl]-5-(3-methanesulfonylphenyl)-1H-pyrazol-3-yl]methoxy)-2-methylpropanoic Acid] |  |  |  | 9300 | > 100000
O=C(O)C1(OCc2cc(-c3ccc(Cl)cc3)n(Cc3ccccc3Cl)n2)CC1 [Example 17, 1-[[5-(4-Chlorophenyl)-1-[(2-chlorophenyl)methyl]pyrazol-3-yl]methoxy]cyclopropanecarboxylic acid] | 440 | 860 | 1200 |  | 
CC(C)(OCc1cc(-c2ccc(Cl)cc2)n(Cc2ccc(Cl)cc2)n1)C(=O)O [Example 2] | 450 | 240 | 29000 |  | 
CC(C)C(=O)Nc1cccc(-c2cc(COC(C)(C)C(=O)O)nn2Cc2ccccc2Cl)c1 [Example 69, 2-([1-[(2-Chlorophenyl)methyl]-5-[3-(2-methylpropanamido)phenyl]-1H-pyrazol-3-yl]methoxy)-2-methylpropanoic Acid] |  |  |  | 5800 | > 100000
CC(C)(OCc1cc(-c2cncs2)n(Cc2ccccc2Cl)n1)C(=O)O [Example 49, 2-([1-[(o-Chlorophenyl)methyl]-5-(1,3-thiazol-5-yl)-1H-pyrazol-3-yl]methoxy)-2-methylpropionic acid] |  |  |  | 240 | 130000
CC(C)c1cccc(-c2cc(COC(C)(C)C(=O)O)nn2Cc2ccccc2Cl)c1 [Example 51, 2-([1-[(2-Chlorophenyl)methyl]-5-[3-(propan-2-yl)phenyl]-1H-pyrazol-3-yl]methoxy)-2-methylpropanoic Acid] |  |  |  | 15 | 6000
CC(C)NC(=O)c1cccc(-c2cc(COC(C)(C)C(=O)O)nn2Cc2ccccc2Cl)c1 [Example 74, 2-([1-[(o-Chlorophenyl)methyl]-5-[m-(isopropylamino)carbonylphenyl]-1H-pyrazol-3-yl]methoxy)-2-methylpropionic Acid] |  |  |  | 6400 | > 100000
CCOc1cccc(-c2cc(COC(C)(C)C(=O)O)nn2Cc2ccccc2Cl)c1 [Example 28, 2-[[1-[(2-Chlorophenyl)methyl]-5-(3-ethoxyphenyl)pyrazol-3-yl]methoxy]-2-methyl-propanoic acid] |  |  |  | 12 | 15000
COc1cccc(-c2cc(COC(C)(C)C(=O)O)nn2Cc2ccccc2)c1 [Example 53, 2-[[1-benzyl-5-(3-methoxyphenyl)-1H-pyrazol-3-yl]methoxy]-2-methylpropanoic acid] |  |  |  | 160 | > 100000
CC(C)(OCc1cc(-c2cccc(N3CCOCC3)c2)n(Cc2ccccc2Cl)n1)C(=O)O [Example 46, 2-[[1-[(2-Chlorophenyl)methyl]-5-(3-morpholinophenyl)pyrazol-3-yl]methoxy]-2-methyl-propanoic acid] |  |  |  | 142 | 47000
CC(C)(OCc1cc(-c2cccc(C#N)c2)n(Cc2ccccc2Cl)n1)C(=O)O [Example 48, 2-([1-[(o-Chlorophenyl)methyl]-5-(m-cyanophenyl)-1H-pyrazol-3-yl]methoxy)-2-methylpropionic acid] |  |  |  | 89 | 55000
CC(C)(OCc1cc(-c2cccs2)n(Cc2ccccc2Cl)n1)C(=O)O [Example 25, 2-[[1-[(2-Chlorophenyl)methyl]-5-(2-thienyl)pyrazol-3-yl]methoxy]-2-methyl-propanoic acid] |  |  |  | 33 | 77000
CC(C)(OCc1cc(Nc2ccccc2)n(Cc2ccccc2Cl)n1)C(=O)O [Example 75, 2-([1-[(2-chlorophenyl)methyl]-5-(phenylamino)-1H-pyrazol-3-yl]methoxy)-2-methylpropanoic Acid] |  |  |  | 1700 | > 100000
CC(C)(OCc1cc(-c2cscn2)n(Cc2ccccc2Cl)n1)C(=O)O [Example 47, 2-([1-[(o-Chlorophenyl)methyl]-5-(1,3-thiazol-4-yl)-1H-pyrazol-3-yl]methoxy)-2-methylpropionic acid] |  |  |  | 410 | > 100000
CC(C)(OCc1cc(-c2cccc(OC3CCC3)c2)n(Cc2ccccc2Cl)n1)C(=O)O [Example 37, 2-[[1-[(2-Chlorophenyl)methyl]-5-[3-(cyclobutoxy)phenyl]pyrazol-3-yl]methoxy]-2-methyl-propanoic acid] |  |  |  | 7.6 | 8400
CCC(CC)(OCc1cc(-c2cccc(OC)c2)n(Cc2ccccc2Cl)n1)C(=O)O [Example 67] |  |  |  | 11 | 17000
